ChEMBL document CHEMBL1201861, “Genomics of Drug Sensitity in Cancer screening data, Wellcome Trust Sanger Institute”

Experiments:
COLO-792 = experiment: cells; assay type: functional, cell-based; details: Homo sapiens
Description: SANGER: Inhibition of human COLO-792 cell growth in a cell viability assay.

DG-75 = experiment: cells; assay type: functional, cell-based; details: Homo sapiens;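 further: growth inhibition of DG-75 cells, read out with a cell viability assay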
Description: SANGER: Inhibition of human DG-75 cell growth in a cell viability assay.

Detroit 562 = experiment: cells; assay type: functional, cell-based; details: Homo sapiens;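 further: growth inhibition of human Detroit 562 cells, read out by a cell viability assay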
Description: SANGER: Inhibition of human Detroit562 cell growth in a cell viability assay.

DoTc2-4510 = experiment: cells; assay type: functional, cell-based; details: Homo sapiens
EGI-1 = experiment: cells; assay type: functional, cell-based; details: Homo sapiens;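 further: cell viability readout used to gauge growth inhibition of EGI-1 cells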
Description: SANGER: Inhibition of human EGI-1 cell growth in a cell viability assay.

EHEB = experiment: cells; assay type: functional, cell-based; details: Homo sapiens;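 further: growth inhibition of human EHEB cells, read out with a cell viability assay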
Description: SANGER: Inhibition of human EHEB cell growth in a cell viability assay.

G-401 = experiment: cells; assay type: functional, cell-based; details: Homo sapiens
Description: SANGER: Inhibition of human G-401 cell growth in a cell viability assay.

GAMG = experiment: cells; assay type: functional, cell-based; details: Homo sapiens;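 further: cell growth inhibition measured by a viability assay in the GAMG human cell line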
Description: SANGER: Inhibition of human GAMG cell growth in a cell viability assay.

GP5d = experiment: cells; assay type: functional, cell-based; details: Homo sapiens;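 further: growth inhibition of human GP5d cells, read out with a cell viability assay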
Description: SANGER: Inhibition of human GP5d cell growth in a cell viability assay.

HCC1806 = experiment: cells; assay type: functional, cell-based; details: Homo sapiens;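 further: growth inhibition of the cancer cell line, determined with a cell viability assay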
Description: SANGER: Inhibition of human HCC1806 cell growth in a cell viability assay.

HN = experiment: cells; assay type: functional, cell-based; details: Homo sapiens
Description: SANGER: Inhibition of human HN cell growth in a cell viability assay.

HSC-3 = experiment: cells; assay type: functional, cell-based; details: Homo sapiens
Description: SANGER: Inhibition of human HSC-3 cell growth in a cell viability assay.

HuP-T4 = experiment: cells; assay type: functional, cell-based; details: Homo sapiens;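 further: cell viability assay measuring how much HuP-T4 cell growth is inhibited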
Description: SANGER: Inhibition of human HuP-T4 cell growth in a cell viability assay.

J82 = experiment: cells; assay type: functional, cell-based; details: Homo sapiens;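 further: growth inhibition of J82 cells, read out with a cell viability assay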
Description: SANGER: Inhibition of human J82 cell growth in a cell viability assay.

LCLC-103H cell line = experiment: cells; assay type: functional, cell-based; details: Homo sapiens
Description: SANGER: Inhibition of human LCLC-103H cell growth in a cell viability assay.

LN-405 = experiment: cells; assay type: functional, cell-based; details: Homo sapiens
Description: SANGER: Inhibition of human LN-405 cell growth in a cell viability assay.

LP-1 = experiment: cells; assay type: functional, cell-based; details: Homo sapiens;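 further: growth inhibition of human LP-1 cells, with the read-out taken from a cell viability assay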
Description: SANGER: Inhibition of human LP-1 cell growth in a cell viability assay.

M059J = experiment: cells; assay type: functional, cell-based; details: Homo sapiens;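 further: growth inhibition of M059J cells, read out with a cell viability assay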
Description: SANGER: Inhibition of human M059J cell growth in a cell viability assay.

M14 = experiment: cells; assay type: functional, cell-based; details: Homo sapiens;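 further: growth inhibition of M14 cells, read out with a cell viability assay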
Description: SANGER: Inhibition of human M14 cell growth in a cell viability assay.

MDA-MB-157 = experiment: cells; assay type: functional, cell-based; details: Homo sapiens
Description: SANGER: Inhibition of human MDA-MB-157 cell growth in a cell viability assay.

NB12 = experiment: cells; assay type: functional, cell-based; details: Homo sapiens;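 further: growth inhibition of human NB12 cells, read out by a cell viability assay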
Description: SANGER: Inhibition of human NB12 cell growth in a cell viability assay.

NCI-H1623 = experiment: cells; assay type: functional, cell-based; details: Homo sapiens;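 further: cell viability assay used as the read-out for growth inhibition of NCI-H1623 cells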
Description: SANGER: Inhibition of human NCI-H1623 cell growth in a cell viability assay.

NCI-H1792 = experiment: cells; assay type: functional, cell-based; details: Homo sapiens;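 further: growth inhibition of human NCI-H1792 cells, read out as cell viability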
Description: SANGER: Inhibition of human NCI-H1792 cell growth in a cell viability assay.

NCI-H187 = experiment: cells; assay type: functional, cell-based; details: Homo sapiens;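 further: growth inhibition of NCI-H187 cells, read out as cell viability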
Description: SANGER: Inhibition of human NCI-H187 cell growth in a cell viability assay.

NCI-H460 = experiment: cells; assay type: functional, cell-based; details: Homo sapiens;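 further: cell viability assay scoring growth inhibition of human NCI-H460 cells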
Description: SANGER: Inhibition of human NCI-H460 cell growth in a cell viability assay.

NCI-H520 = experiment: cells; assay type: functional, cell-based; details: Homo sapiens;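 further: growth inhibition of NCI-H520 cells, measured by a cell viability assay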
Description: SANGER: Inhibition of human NCI-H520 cell growth in a cell viability assay.

NCI-H64 = experiment: cells; assay type: functional, cell-based; details: Homo sapiens;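 further: growth inhibition of NCI-H64 cells, read out with a cell viability assay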
Description: SANGER: Inhibition of human NCI-H64 cell growth in a cell viability assay.

NCI-H716 = experiment: cells; assay type: functional, cell-based; details: Homo sapiens;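 further: growth inhibition of human NCI-H716 cells, measured by a cell viability assay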
Description: SANGER: Inhibition of human NCI-H716 cell growth in a cell viability assay.

NCI-H719 = experiment: cells; assay type: functional, cell-based; details: Homo sapiens;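 further: growth inhibition of the cultured cell line, read out with a viability assay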
Description: SANGER: Inhibition of human NCI-H719 cell growth in a cell viability assay.

OVCAR-3 = experiment: cells; assay type: functional, cell-based; details: Homo sapiens;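 further: growth inhibition of human OVCAR-3 cells, determined by a cell viability assay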
Description: SANGER: Inhibition of human OVCAR-3 cell growth in a cell viability assay.

PANC-08-13 = experiment: cells; assay type: functional, cell-based; details: Homo sapiens
Description: SANGER: Inhibition of human PANC-08-13 cell growth in a cell viability assay.

RD = experiment: cells; assay type: functional, cell-based; details: Homo sapiens
Description: SANGER: Inhibition of human RD cell growth in a cell viability assay.

RL = experiment: cells; assay type: functional, cell-based; details: Homo sapiens
Description: SANGER: Inhibition of human RL cell growth in a cell viability assay.

RMG-I = experiment: cells; assay type: functional, cell-based; details: Homo sapiens;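 further: growth inhibition of human RMG-I cells, read out with a cell viability assay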
Description: SANGER: Inhibition of human RMG-I cell growth in a cell viability assay.

RPMI-6666 = experiment: cells; assay type: functional, cell-based; details: Homo sapiens
Description: SANGER: Inhibition of human RPMI-6666 cell growth in a cell viability assay.

RPMI-7951 = experiment: cells; assay type: functional, cell-based; details: Homo sapiens
Description: SANGER: Inhibition of human RPMI-7951 cell growth in a cell viability assay.

RPMI 8402 = experiment: SANGER: Inhibition of human RPMI-8402 cell growth in a cell viability assay.; assay type: functional, cell-based
SCC-3 = experiment: cells; assay type: functional, cell-based; details: Homo sapiens;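 further: cell viability assay measuring inhibition of SCC-3 cell growth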
Description: SANGER: Inhibition of human SCC-3 cell growth in a cell viability assay.

SF-295 = experiment: cells; assay type: functional, cell-based; details: Homo sapiens;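 further: growth inhibition of SF-295 cells, read out with a cell viability assay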
Description: SANGER: Inhibition of human SF295 cell growth in a cell viability assay.

SK-HEP1 = experiment: cells; assay type: functional, cell-based, SK-HEP-1; details: Homo sapiens;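 further: cell viability readout used to quantify reduction in proliferation of human SK-HEP-1 cells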
Description: SANGER: Inhibition of human SK-HEP-1 cell growth in a cell viability assay.

SK-LU-1 = experiment: cells; assay type: functional, cell-based; details: Homo sapiens;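 further: cell viability assay measuring growth inhibition of human SK-LU-1 cells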
Description: SANGER: Inhibition of human SK-LU-1 cell growth in a cell viability assay.

SW1463 = experiment: cells; assay type: functional, cell-based; details: Homo sapiens;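 further: growth inhibition of SW1463 cells, determined with a cell viability assay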
Description: SANGER: Inhibition of human SW1463 cell growth in a cell viability assay.

SW48 = experiment: cells; assay type: functional, cell-based; details: Homo sapiens;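 further: growth inhibition of SW48 cells, read out with a cell viability assay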
Description: SANGER: Inhibition of human SW48 cell growth in a cell viability assay.

SW-620 = experiment: cells; assay type: functional, cell-based; details: Homo sapiens;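 further: growth inhibition of human SW-620 cells, measured by a cell viability assay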
Description: SANGER: Inhibition of human SW620 cell growth in a cell viability assay.

SW626 = experiment: cells; assay type: functional, cell-based; details: Homo sapiens;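 further: growth inhibition of SW626 cells, measured with a cell viability assay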
Description: SANGER: Inhibition of human SW626 cell growth in a cell viability assay.

T98G = experiment: cells; assay type: functional, cell-based; details: Homo sapiens;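 further: growth inhibition of T98G cells, read out by a cell viability assay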
Description: SANGER: Inhibition of human T98G cell growth in a cell viability assay.

TCC-SUP = experiment: cells; assay type: functional, cell-based; details: Homo sapiens;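 further: growth inhibition of TCC-SUP cells, read out with a cell viability assay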
Description: SANGER: Inhibition of human TCCSUP cell growth in a cell viability assay.

A204 = experiment: cells; assay type: functional, cell-based; details: Homo sapiens;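 further: growth inhibition of human A204 cells, read out with a cell viability assay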
Description: SANGER: Inhibition of human A204 cell growth in a cell viability assay.

ABC-1 = experiment: cells; assay type: functional, cell-based; details: Homo sapiens;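 further: growth inhibition of human ABC-1 cells, read out by a cell viability assay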
Description: SANGER: Inhibition of human ABC-1 cell growth in a cell viability assay.

BC1 cell line = experiment: SANGER: Inhibition of human BC-1 cell growth in a cell viability assay.; assay type: functional, cell-based
BCPAP = experiment: cells; assay type: functional, cell-based; details: Homo sapiens;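 further: growth inhibition of BCPAP cells, read out in a cell viability assay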
Description: SANGER: Inhibition of human BCPAP cell growth in a cell viability assay.

BFTC-905 = experiment: cells; assay type: functional, cell-based; details: Homo sapiens
Description: SANGER: Inhibition of human BFTC-905 cell growth in a cell viability assay.

BHT-101 = experiment: cells; assay type: functional, cell-based; details: Homo sapiens
Description: SANGER: Inhibition of human BHT-101 cell growth in a cell viability assay.

BPH-1 = experiment: cells; assay type: functional, cell-based; details: Homo sapiens;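 further: cell viability assay measuring growth inhibition of human BPH-1 cells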
Description: SANGER: Inhibition of human BPH-1 cell growth in a cell viability assay.

CAL-148 = experiment: cells; assay type: functional, cell-based; details: Homo sapiens
Description: SANGER: Inhibition of human CAL-148 cell growth in a cell viability assay.

CAL-39 = experiment: cells; assay type: functional, cell-based; details: Homo sapiens;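 further: cell viability assay measuring growth inhibition of CAL-39 cells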
Description: SANGER: Inhibition of human CAL-39 cell growth in a cell viability assay.

CAL-72 = experiment: cells; assay type: functional, cell-based; details: Homo sapiens;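 further: cell viability assay measuring inhibition of proliferation in the CAL-72 cell line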
Description: SANGER: Inhibition of human CAL-72 cell growth in a cell viability assay.

THP-1 = experiment: cells; assay type: functional, cell-based; details: Homo sapiens;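 further: growth inhibition of THP-1 cells, read out via a cell viability assay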
Description: SANGER: Inhibition of human THP-1 cell growth in a cell viability assay.

TUR = experiment: cells; assay type: functional, cell-based; details: Homo sapiens;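 further: growth inhibition of human TUR cells, read out with a cell viability assay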
Description: SANGER: Inhibition of human TUR cell growth in a cell viability assay.

UMC-11 = experiment: cells; assay type: functional, cell-based; details: Homo sapiens;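 further: growth inhibition of UMC-11 cells, read out with a cell viability assay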
Description: SANGER: Inhibition of human UMC-11 cell growth in a cell viability assay.

WM-115 = experiment: cells; assay type: functional, cell-based; details: Homo sapiens
Description: SANGER: Inhibition of human WM-115 cell growth in a cell viability assay.

CAMA-1 = experiment: cells; assay type: functional, cell-based; details: Homo sapiens;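 further: growth inhibition of CAMA-1 cells, read out with a cell viability assay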
Description: SANGER: Inhibition of human CAMA-1 cell growth in a cell viability assay.

CHL-1 = experiment: cells; assay type: functional, cell-based; details: Homo sapiens;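 further: cell growth inhibition, read out with a cell viability assay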
Description: SANGER: Inhibition of human CHL-1 cell growth in a cell viability assay.

Structure (SMILES): CO[C@@]12[C@H](COC(N)=O)C3=C(C(=O)C(C)=C(N)C3=O)N1C[C@@H]1N[C@@H]12 [MITOMYCIN]
- IC50 (COLO-792): 1500 nM
- IC50 (DG-75): 6.25 µM
- IC50 (Detroit 562): 170 nM
- IC50 (DoTc2-4510): 180 nM
- IC50 (EGI-1): 2390 nM
- IC50 (EHEB): 672 nM
- IC50 (G-401): 634 nM
- IC50 (GAMG): 428 nM
- IC50 (GP5d): 84 nM
- IC50 (HCC1806): 135 nM
- IC50 (HN): 783 nM
- IC50 (HSC-3): 75.5 nM
- IC50 (HuP-T4): 108 nM
- IC50 (J82): < 62.5 nM
- IC50 (LCLC-103H cell line): 461 nM
- IC50 (LN-405): 2150 nM
- IC50 (LP-1): 4560 nM
- IC50 (M059J): 101 nM
- IC50 (M14): 1340 nM
- IC50 (MDA-MB-157): 2190 nM
- IC50 (NB12): 1200 nM
- IC50 (NCI-H1623): 1010 nM
- IC50 (NCI-H1792): 697 nM
- IC50 (NCI-H187): 708 nM
- IC50 (NCI-H460): < 62.5 nM
- IC50 (NCI-H520): 169 nM
- IC50 (NCI-H64): 1530 nM
- IC50 (NCI-H716): 2820 nM
- IC50 (NCI-H719): 35.1 nM
- IC50 (OVCAR-3): 1130 nM
- IC50 (PANC-08-13): 2400 nM
- IC50 (RD): 1900 nM
- IC50 (RL): 5.44 µM
- IC50 (RMG-I): 3460 nM
- IC50 (RPMI-6666): 220 nM
- IC50 (RPMI-7951): 168 nM
- IC50 (RPMI 8402): 17.1 nM
- IC50 (SCC-3): < 62.5 nM
- IC50 (SF-295): < 62.5 nM
- IC50 (SK-HEP1): 646 nM
- IC50 (SK-LU-1): < 62.5 nM
- IC50 (SW1463): 2080 nM
- IC50 (SW48): 193 nM
- IC50 (SW-620): 39.8 nM
- IC50 (SW626): 286 nM
- IC50 (T98G): 524 nM
- IC50 (TCC-SUP): 482 nM
- IC50 (A204): 84.2 nM
- IC50 (ABC-1): 61.2 nM
- IC50 (BC1 cell line): 88.8 nM
- IC50 (BCPAP): 240 nM
- IC50 (BFTC-905): 92.7 nM
- IC50 (BHT-101): 1740 nM
- IC50 (BPH-1): 29.9 nM
- IC50 (CAL-148): 17.8 nM
- IC50 (CAL-39): 46.5 nM
- IC50 (CAL-72): > 16000 nM
- IC50 (THP-1): 596 nM
- IC50 (TUR): 190 nM
- IC50 (UMC-11): 567 nM
- IC50 (WM-115): > 16000 nM
- IC50 (CAMA-1): 541 nM
- IC50 (CHL-1): 225 nM

Structure (SMILES): C/C=C(/C)C(=O)O[C@H]1C(C)=C2[C@H]([C@@H]1OC(=O)CCCCCCC)[C@@](C)(OC(C)=O)C[C@H](OC(=O)CCC)[C@@]1(O)[C@H]2OC(=O)[C@@]1(C)O [THAPSIGARGIN]
- IC50 (COLO-792): 59.6 nM
- IC50 (DG-75): > 0.512 µM
- IC50 (Detroit 562): 2.52 nM
- IC50 (DoTc2-4510): 12.4 nM
- IC50 (EGI-1): 21.7 nM
- IC50 (EHEB): 94.1 nM
- IC50 (G-401): 25.1 nM
- IC50 (GAMG): 8.86 nM
- IC50 (GP5d): 41.7 nM
- IC50 (HCC1806): 2.4 nM
- IC50 (HN): > 512 nM
- IC50 (HSC-3): 11.3 nM
- IC50 (HuP-T4): 1.3 nM
- IC50 (J82): 7.91 nM
- IC50 (LCLC-103H cell line): < 2 nM
- IC50 (LN-405): > 512 nM
- IC50 (LP-1): 4.08 nM
- IC50 (M059J): 10.8 nM
- IC50 (M14): 14 nM
- IC50 (MDA-MB-157): > 512 nM
- IC50 (NB12): 13.2 nM
- IC50 (NCI-H1623): > 512 nM
- IC50 (NCI-H1792): 0.526 nM
- IC50 (NCI-H187): 53.2 nM
- IC50 (NCI-H460): 8.37 nM
- IC50 (NCI-H520): < 2 nM
- IC50 (NCI-H64): 6.45 nM
- IC50 (NCI-H716): > 512 nM
- IC50 (NCI-H719): > 512 nM
- IC50 (OVCAR-3): < 2 nM
- IC50 (PANC-08-13): 23.8 nM
- IC50 (RD): 7.35 nM
- IC50 (RL): > 0.512 µM
- IC50 (RMG-I): 13.3 nM
- IC50 (RPMI-6666): 42.6 nM
- IC50 (RPMI-7951): 3.98 nM
- IC50 (RPMI 8402): 5.23 nM
- IC50 (SCC-3): 41.6 nM
- IC50 (SF-295): < 2 nM
- IC50 (SK-HEP1): 7.8 nM
- IC50 (SK-LU-1): 1.16 nM
- IC50 (SW1463): > 512 nM
- IC50 (SW48): 1.67 nM
- IC50 (SW-620): 3.02 nM
- IC50 (SW626): 17.7 nM
- IC50 (T98G): 0.741 nM
- IC50 (TCC-SUP): 51.6 nM
- IC50 (A204): 17.3 nM
- IC50 (ABC-1): 3.19 nM
- IC50 (BC1 cell line): 23.2 nM
- IC50 (BCPAP): < 2 nM
- IC50 (BFTC-905): 0.662 nM
- IC50 (BHT-101): 88.1 nM
- IC50 (BPH-1): 0.6 nM
- IC50 (CAL-148): > 512 nM
- IC50 (CAL-39): < 2 nM
- IC50 (CAL-72): 2.27 nM
- IC50 (THP-1): 11.4 nM
- IC50 (TUR): 12.5 nM
- IC50 (UMC-11): 9.15 nM
- IC50 (WM-115): 21.9 nM
- IC50 (CAMA-1): 10.5 nM
- IC50 (CHL-1): 12.5 nM
